The values below come from article PMC8071972, “Urinary L-erythro-β-hydroxyasparagine—a novel serine racemase inhibitor and substrate of the Zn^2+-dependent D-serine dehydratase” (Bioscience Reports, 2021).

Common to all, as to assay type: biochemical
For assay [1], the target named is T1, serine racemase (mouse SR) (Mus musculus, UniProt Q9QZX7).
T1 construct: gene Srr; N-terminal His-tag, recombinant from E. coli
T1 sequence (Q9QZX7 1-339): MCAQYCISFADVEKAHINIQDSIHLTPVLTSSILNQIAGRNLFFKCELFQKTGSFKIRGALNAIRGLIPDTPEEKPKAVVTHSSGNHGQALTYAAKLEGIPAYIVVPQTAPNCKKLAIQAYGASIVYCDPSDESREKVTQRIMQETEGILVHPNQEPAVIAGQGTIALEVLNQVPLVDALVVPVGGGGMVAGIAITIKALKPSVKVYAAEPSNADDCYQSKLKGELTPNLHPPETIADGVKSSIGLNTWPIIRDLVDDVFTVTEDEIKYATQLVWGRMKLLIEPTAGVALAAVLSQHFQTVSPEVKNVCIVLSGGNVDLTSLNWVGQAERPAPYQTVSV
Kind of assay: enzymatic resolution of racemic β-EHAsp by recombinant enzyme.

In assay [2] the target is T1, serine racemase (mouse SR). Put plainly: LDH-coupled L-Ser dehydration assay, steady-state kinetics.
The target of assay [3] is T2, D-serine dehydratase (Dsd1p) (Saccharomyces cerevisiae, UniProt P53095).
T2 construct: gene DSD1; N-terminal His-tagged protein
T2 sequence (P53095 1-428): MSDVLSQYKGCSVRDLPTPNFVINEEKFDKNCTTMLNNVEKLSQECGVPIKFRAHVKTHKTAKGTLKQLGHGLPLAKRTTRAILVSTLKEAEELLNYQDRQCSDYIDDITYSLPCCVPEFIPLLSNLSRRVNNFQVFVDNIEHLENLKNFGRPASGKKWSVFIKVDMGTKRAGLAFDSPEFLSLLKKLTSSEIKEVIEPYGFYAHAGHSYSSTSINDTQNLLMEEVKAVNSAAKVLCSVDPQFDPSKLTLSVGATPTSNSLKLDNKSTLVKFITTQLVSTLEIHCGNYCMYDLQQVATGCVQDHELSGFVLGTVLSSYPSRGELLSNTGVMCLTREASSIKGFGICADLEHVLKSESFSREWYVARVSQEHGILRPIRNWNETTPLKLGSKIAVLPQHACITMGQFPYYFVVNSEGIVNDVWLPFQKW
Put plainly: HPLC and LC-ESI-MS of urinary amino acid degradation by purified enzyme.

For assay [4], the target named is T3, asparaginase (AnsA; printed AsnA in the results, asparaginase 1) (Escherichia coli, UniProt P0A962).
T3 construct: N-terminal His-tagged protein
T3 sequence (P0A962 1-338): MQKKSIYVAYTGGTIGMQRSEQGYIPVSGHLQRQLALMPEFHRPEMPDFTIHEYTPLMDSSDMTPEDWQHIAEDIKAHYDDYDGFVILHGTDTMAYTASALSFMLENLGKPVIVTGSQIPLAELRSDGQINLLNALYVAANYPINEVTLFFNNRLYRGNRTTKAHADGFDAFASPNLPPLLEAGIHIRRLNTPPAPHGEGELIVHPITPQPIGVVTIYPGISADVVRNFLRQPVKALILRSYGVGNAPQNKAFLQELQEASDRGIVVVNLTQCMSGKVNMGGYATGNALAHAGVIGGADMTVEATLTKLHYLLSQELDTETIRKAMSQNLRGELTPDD
Kind of assay: HPLC of urinary amino acids treated with purified enzyme.

In assay [5] the target is T4, asparagine synthase (AsnA) (Escherichia coli, UniProt P00963).
T4 construct: N-terminal His-tagged protein
T4 sequence (P00963 1-330): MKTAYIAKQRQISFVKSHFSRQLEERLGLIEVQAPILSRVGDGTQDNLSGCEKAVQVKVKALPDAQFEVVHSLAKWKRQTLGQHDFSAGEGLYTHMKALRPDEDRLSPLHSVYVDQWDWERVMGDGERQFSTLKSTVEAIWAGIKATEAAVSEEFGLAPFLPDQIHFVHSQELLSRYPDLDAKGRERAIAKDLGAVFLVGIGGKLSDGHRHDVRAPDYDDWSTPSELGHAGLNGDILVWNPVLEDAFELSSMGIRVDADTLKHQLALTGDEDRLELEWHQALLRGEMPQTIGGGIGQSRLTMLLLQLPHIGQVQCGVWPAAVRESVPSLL
Kind of assay: preparative enzymatic amidation, HPLC.

As to `N[C@@H](C(=O)O)[C@H](O)C(=O)O` (racemic) [D-β-EHAsp], the “enzymatic resolution of racemic β-EHAsp by recombinant enzyme” value in assay [1] was “could efficiently eliminate D-β-EHAsp from the racemic mixture”.
As for `NC(=O)[C@H](O)[C@H](N)C(=O)O` (stereo in doubt) [L-β-EHAsn, L-erythro-β-hydroxyasparagine], the affinity in assay [2] corresponds to a Ki of 40 ± 6 µM. Also, the “HPLC and LC-ESI-MS of urinary amino acid degradation by purified enzyme” value in assay [3] was “the urinary Dsd1p substrate was identified as the (2S, 3S)-isomer of β-OH-Asn (L-β-EHAsn)”. Also, the “HPLC of urinary amino acids treated with purified enzyme” value in assay [4] was “Urinary β-OH-Asn could be converted into the corresponding isomer of β-hydroxy aspartate (β-OH-Asp) using the E. coli asparaginase”.
As for `N[C@H](C(=O)O)[C@@H](O)C(=O)O` [L-β-EHAsp], the “preparative enzymatic amidation, HPLC” value in assay [5] is reported as “L-β-EHAsp was further converted to L-β-EHAsn by the action of E. coli AsnA”.
